# In paper PMC11035632, “Discovery of gefitinib-1,2,3-triazole derivatives against lung cancer via inducing apoptosis and inhibiting the colony formation” (Scientific Reports, 2024):
# Tests used:
# Format in all cases: cell-based, human
# H1299 cells [1] = assay: Wound healing assay; conditions: 24 h
# Protocol: H1299 cells were seeded in a 6-well plate, When the cell confluency reached 95%, a wound line was scratched using a 200 µl pipette tip, and then washed three times, fresh medium containing 7a or 7j (2, 4 and 8 μmol/L) was added, and the plate was incubated at 37 °C with 5% CO2. All the images were captured at 0 h and 24 h under an inverted microscope, and the quantification of scratches was analysed using Image J.
# H1299 cells [2] = assay: Flow cytometry detection of apoptosis (Annexin V-EGFP/PI); conditions: 48 h
# Protocol: H1299 cells were treated with different concentrations of 7a and 7j for 48 h. The cells were stained with Annexin-V and PI, and the proportion of apoptotic cells was detected using flow cytometry.
# H1299 cells were seeded in a 6-well plate at a density of 1 × 10^5 cells/well and incubated for 24 h. On the following day, the medium was replaced with fresh medium containing 7a or 7j (2, 4 and 8 μmol/L) and cells were incubated for an additional 48 h. Cell apoptosis was detected using Annexin V-EGFP/PI apoptosis detection Kit by flow cytometry. Subsequently, 5 µl of […] Annexin V and 10 µl of PI was added to the cell suspension, gently vortexed, and incubated at room temperature in the dark for 20 min, then single-cell suspension was prepared followed by flow cytometry (BD Accuri™ C6 Plus).
# H1299 cells [3] = assay: Transwell migration assay; conditions: H1299, 2, 4 and 8 μmol/L, 24 h, vs normal control, p < 0.01
# Protocol: Transwell chamber migration assay is another important method to assess cell migration ability. Tumor cells are seeded in the chamber, and the number of tumor cells that pass through the membrane is counted to evaluate the migration ability of tumor cells.
# Transwell assay was used to determine the migration ability of H1299 cells. Cells were starved in serum-free RPMI 1640 medium for 24 h, then detached and resuspended in serum-free RPMI 1640 medium. 5 × 10^5 cells/mL were inoculated into the upper chamber of a 24-well Transwell plate (Corning Inc., United States), with a volume of 100 µl per well. Then, 100 µL serum-free medium containing 7a or 7j (2, 4 and 8 μmol/L) was added to the upper chamber and the lower chamber was filled with 700 µL medium containing 20% FBS. After incubation for 24 h, H1299 cells on the upper membrane of the transwell were wiped off. The migrated cells were treated with 4% paraformaldehyde for 20 min, stained with 0.1% crystal violet for 20 min and washed three times with PBS. The number of H1299 cells that migrated to the underside of the membrane was counted under the inverted fluorescence microscope. Three randomly selected areas from each transwell were photographed and calculated using Image J.
structure (smiles),measurement,setting,value
COc1cc2ncnc(Nc3cccc(-c4cn(Cc5cc(F)ccc5Br)nn4)c3)c2cc1OCCCN1CCOCC1 [Compound 7a],migration closure rate,"H1299 cells [1]; H1299, 2 μmol/L",65.16 ± 7.88%
same,migration closure rate,"H1299 cells [1]; H1299, 4 μmol/L",50.12 ± 2.99%
same,migration closure rate,"H1299 cells [1]; H1299, 8 μmol/L",23.54 ± 3.65%
same,total apoptotic cell proportion,"H1299 cells [2]; H1299, 2 μmol/L",19.03 ± 2.10%
same,total apoptotic cell proportion,"H1299 cells [2]; H1299, 4 μmol/L",28.73 ± 1.12%
same,total apoptotic cell proportion,"H1299 cells [2]; H1299, 8 μmol/L",50.1 ± 2.91%
same,number of cells passing through the membrane to the lower surface of the chamber,H1299 cells [3],significantly decreased
